# PubChem BioAssay AID2060509 (Molecular Pharmacology Branch, DTP, NCI, 2025)
# System: 485176-168-R4-J1-PDC spheroids with HUVEC/MSC, viability
# Experiment: Anticancer human tumor 485176-168-R4-J1-PDC patient-derived pancreatic adenocarcinoma cell line growth inhibition [GQUAD]
# Details: for IC50: curve of first compound; for viability, T/C: stronger effect = lower value
# How it was run: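 Tumor cells were grown as complex spheroids with HUVEC endothelial cells and mesenchymal stem cells as stroma. G-quadruplex stabilizers were combined with targeted agents over half-log dilutions from near the clinical Cmax, or from 10 microM.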
# [1] = second compound 0.0316 µM, first compound 0.0316 µM
# [2] = second compound 0.0316 µM, first compound 0.316 µM
# [3] = second compound 0.1 µM, first compound 0.0316 µM
# [4] = second compound 0.1 µM, first compound 0.316 µM
# [5] = second compound 0.316 µM, first compound 0.0316 µM
# [6] = second compound 0.316 µM, first compound 0.316 µM
# [7] = second compound 1 µM, first compound 0.0316 µM
# [8] = second compound 1 µM, first compound 0.316 µM
# [9] = second compound 3.16 µM, first compound 0.0316 µM
# [10] = second compound 3.16 µM, first compound 0.316 µM
# [11] = second compound 10 µM, first compound 0.0316 µM
# [12] = second compound 10 µM, first compound 0.316 µM
# 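Note: spheroids exposed to compounds for seven days before readout.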
# 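Throughout, for viability, T/C: percent viability relative to DMSO vehicle control wells as 100%.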
smiles,measurement,setting,value
Cn1ncnc1[C@H]1c2n[nH]c(=O)c3cc(F)cc(c23)N[C@@H]1c1ccc(F)cc1 + Cc1[nH]c2ccc(F)cc2c1-c1nc2c3cccnc3c3ncccc3c2[nH]1,IC50,second compound 0.0316 µM,> 316 nM
same,IC50,second compound 0.1 µM,> 316 nM
same,IC50,second compound 0.316 µM,> 316 nM
same,IC50,second compound 1 µM,> 316 nM
same,IC50,second compound 3.16 µM,> 316 nM
same,IC50,second compound 10 µM,> 316 nM
same,"viability, T/C","second compound 0.0316 µM, first compound 0.000999 µM",109%
same,"viability, T/C","second compound 0.0316 µM, first compound 0.00316 µM",80.7%
same,"viability, T/C","second compound 0.0316 µM, first compound 0.00999 µM",103%
same,"viability, T/C",[1],86.6%
same,"viability, T/C","second compound 0.0316 µM, first compound 0.0999 µM",91.8%
same,"viability, T/C",[2],109%
same,"viability, T/C","second compound 0.1 µM, first compound 0.000999 µM",90.9%
same,"viability, T/C","second compound 0.1 µM, first compound 0.00316 µM",92.2%
same,"viability, T/C","second compound 0.1 µM, first compound 0.00999 µM",88.3%
same,"viability, T/C",[3],109%
same,"viability, T/C","second compound 0.1 µM, first compound 0.0999 µM",93.4%
same,"viability, T/C",[4],99.5%
same,"viability, T/C","second compound 0.316 µM, first compound 0.000999 µM",78.3%
same,"viability, T/C","second compound 0.316 µM, first compound 0.00316 µM",95.6%
same,"viability, T/C","second compound 0.316 µM, first compound 0.00999 µM",101%
same,"viability, T/C",[5],117%
same,"viability, T/C","second compound 0.316 µM, first compound 0.0999 µM",97.9%
same,"viability, T/C",[6],84.4%
same,"viability, T/C","second compound 1 µM, first compound 0.000999 µM",77.2%
same,"viability, T/C","second compound 1 µM, first compound 0.00316 µM",90.2%
same,"viability, T/C","second compound 1 µM, first compound 0.00999 µM",94.3%
same,"viability, T/C",[7],90.5%
same,"viability, T/C","second compound 1 µM, first compound 0.0999 µM",87.2%
same,"viability, T/C",[8],88.9%
same,"viability, T/C","second compound 3.16 µM, first compound 0.000999 µM",85.5%
same,"viability, T/C","second compound 3.16 µM, first compound 0.00316 µM",89.3%
same,"viability, T/C","second compound 3.16 µM, first compound 0.00999 µM",86.2%
same,"viability, T/C",[9],79.7%
same,"viability, T/C","second compound 3.16 µM, first compound 0.0999 µM",96.4%
same,"viability, T/C",[10],85.1%
same,"viability, T/C","second compound 10 µM, first compound 0.000999 µM",106%
same,"viability, T/C","second compound 10 µM, first compound 0.00316 µM",86.2%
same,"viability, T/C","second compound 10 µM, first compound 0.00999 µM",89.5%
same,"viability, T/C",[11],77.9%
same,"viability, T/C","second compound 10 µM, first compound 0.0999 µM",91.7%
same,"viability, T/C",[12],78.5%
Nc1ccn(C2OC(CO)C(O)C2(F)F)c(=O)n1 (centres undefined) + Cc1[nH]c2ccc(F)cc2c1-c1nc2c3cccnc3c3ncccc3c2[nH]1,IC50,second compound 0.0316 µM,50.5 nM
same,IC50,second compound 0.1 µM,40 nM
same,IC50,second compound 0.316 µM,42.1 nM
same,IC50,second compound 1 µM,54.1 nM
same,IC50,second compound 3.16 µM,54.4 nM
same,IC50,second compound 10 µM,57.4 nM
same,"viability, T/C",[1],71.8%
same,"viability, T/C","second compound 0.0316 µM, first compound 0.1 µM",18.2%
same,"viability, T/C",[2],10.3%
same,"viability, T/C","second compound 0.0316 µM, first compound 1 µM",9.1%
same,"viability, T/C","second compound 0.0316 µM, first compound 3.16 µM",11.2%
same,"viability, T/C","second compound 0.0316 µM, first compound 10 µM",10.4%
same,"viability, T/C",[3],56.6%
same,"viability, T/C","second compound 0.1 µM, first compound 0.1 µM",24.9%
same,"viability, T/C",[4],9.79%
same,"viability, T/C","second compound 0.1 µM, first compound 1 µM",9.89%
same,"viability, T/C","second compound 0.1 µM, first compound 3.16 µM",11.8%
same,"viability, T/C","second compound 0.1 µM, first compound 10 µM",9.87%
same,"viability, T/C",[5],58%
same,"viability, T/C","second compound 0.316 µM, first compound 0.1 µM",25.7%
same,"viability, T/C",[6],12%
same,"viability, T/C","second compound 0.316 µM, first compound 1 µM",10.1%
same,"viability, T/C","second compound 0.316 µM, first compound 3.16 µM",9.86%
same,"viability, T/C","second compound 0.316 µM, first compound 10 µM",11.9%
same,"viability, T/C",[7],71.3%
same,"viability, T/C","second compound 1 µM, first compound 0.1 µM",25.6%
same,"viability, T/C",[8],9.77%
same,"viability, T/C","second compound 1 µM, first compound 1 µM",10.7%
same,"viability, T/C","second compound 1 µM, first compound 3.16 µM",12.2%
same,"viability, T/C","second compound 1 µM, first compound 10 µM",12.2%
same,"viability, T/C",[9],69.7%
same,"viability, T/C","second compound 3.16 µM, first compound 0.1 µM",27.8%
same,"viability, T/C",[10],10.8%
same,"viability, T/C","second compound 3.16 µM, first compound 1 µM",12.1%
same,"viability, T/C","second compound 3.16 µM, first compound 3.16 µM",11.2%
same,"viability, T/C","second compound 3.16 µM, first compound 10 µM",13.9%
same,"viability, T/C",[11],71.8%
same,"viability, T/C","second compound 10 µM, first compound 0.1 µM",29.8%
same,"viability, T/C",[12],10.8%
same,"viability, T/C","second compound 10 µM, first compound 1 µM",10.4%
same,"viability, T/C","second compound 10 µM, first compound 3.16 µM",10.2%
same,"viability, T/C","second compound 10 µM, first compound 10 µM",10.8%
